Results: patent US20180177706A1, “COMPOSITIONS CONTAINING HYALURONIC ACID AND SYNERGISTIC ANTI-HYALURONIDASE ACTIVES” (L'OREAL, priority 2016, published 2018)

How the values were obtained:
[1] = system: hyaluronidase (HAase); assay: in vitro dose screening assay of HAase inhibitors; type: biochemical
Procedure: Antioxidants having known hyaluronidase inhibition properties were tested in vitro to establish baseline inhibition. Referring now to the drawings, selected results are shown in the table of FIG. 1, with the known HAase inhibitor Apigenin as a positive control.

[2] = system: HAase; assay: HA gel model of HAase inhibition-based kinetic viscoelastic profile measurement; type: biochemical
Procedure: Hyaluronidase inhibition activity was evaluated in a HA gel model of HAase inhibition-based kinetic viscoelastic profile measurement. According to the experimental design, various individual controls and known HAase inhibitors were tested (alone and in combination). In this model, HAase was introduced into a gel composed of HA. Upon exposure, the HAase decomposes the HA gel in a time dependent manner which is directly correlated to the viscosity of the HA gel. Test compounds were introduced to the HA gel system and degree of HAase inhibition as gauged by measuring viscosity (change in viscosity) over time.
At each time point, % of Viscosity Loss is compared to the viscosity of HA gel without enzyme.
To describe the synergy clearly, the “inhibition factor,” below, reflects the extent of inhibition of HAase activity, where n=viscosity: […]

[3] = solubility / formulation observation; type: physicochemical
[4] = system: HAase; conditions: stated as known; cited from earlier work

| SMILES | inhibition of HAase (in words) ([1]; concentration of 0.05 mg/mL) | dose effect on HAase inhibition ([1]; up to testing dose of 0.5 mg/ml) | inhibition of hyaluronidase in gel model (in words) [2] | inhibition of HAase (in words) ([1]; in vitro assay) | solubility (in words) [3] | inhibition of HAase (known) [4] |
| --- | --- | --- | --- | --- | --- | --- |
| CC1(C)[C@@H](O[C@H]2O[C@H](C(=O)[O-])[C@@H](O)[C@H](O)[C@H]2O[C@@H]2O[C@H](C(=O)[O-])[C@@H](O)[C@H](O)[C@H]2O)CC[C@]2(C)[C@H]3C(=O)C=C4[C@@H]5C[C@@](C)(C(=O)O)CC[C@]5(C)CC[C@@]4(C)[C@]3(C)CC[C@@H]12.[K+].[K+] [dipotassium glycyrrhizate] | mild inhibitors | no clear dose effect | very mild effect |  |  |  |
| O=C(OC[C@H]1O[C@@H](OC(=O)c2cc(O)c(O)c(OC(=O)c3cc(O)c(O)c(O)c3)c2)[C@H](OC(=O)c2cc(O)c(O)c(OC(=O)c3cc(O)c(O)c(O)c3)c2)[C@@H](OC(=O)c2cc(O)c(O)c(OC(=O)c3cc(O)c(O)c(O)c3)c2)[C@@H]1OC(=O)c1cc(O)c(O)c(OC(=O)c2cc(O)c(O)c(O)c2)c1)c1cc(O)c(O)c(OC(=O)c2cc(O)c(O)c(O)c2)c1 [tannic acid] |  |  |  | very potent inhibitor | highly insoluble | super-efficient inhibitor |
